A word on the pIC50: it is the IC50 on a negative log10 scale, so that one unit is a factor of ten.

Results on one compound are retold here after ChEMBL document CHEMBL5537109, “Natural products as potential lead compounds to develop new antiviral drugs over the past decade” (Eur J Med Chem, 2023).

The experiment addresses Neuraminidase (Influenza A virus (A/Puerto Rico/8/1934(H1N1)), UniProt P03468, H274Y). The experiment in a line: Inhibition of influenza A virus H1N1 neuraminidase H274Y mutant.

pIC50: −log10 of the molar value. A value given as a limit tells only on which side of the number the result lay.

For `C[C@@H]1C[C@H](C)C(=O)[C@@H]2O[C@@H]2[C@@H]2[C@@H](O)[C@@H]3OC4=C(C(=O)O[C@@]42C[C@H]3C)C1=O`, the negative logarithm of the IC50 (pIC50) was < 4.36.
